Source: patent publication US20140309210A1, “INDAZOLE COMPOUNDS, COMPOSITIONS AND METHODS OF USE THEREOF” (Genentech, Inc., priority 2011, published 2014)

What follows are compounds tested against T1, purified ITK (Invitrogen PV3875) (Homo sapiens, UniProt Q08881) (assay: ITK peptide phosphorylation assay (Caliper LabChip or LCMS)). Conditions: Table 1, Examples 141-279.
T1 construct: purchased Invitrogen PV3875
T1 sequence (Q08881 1-620): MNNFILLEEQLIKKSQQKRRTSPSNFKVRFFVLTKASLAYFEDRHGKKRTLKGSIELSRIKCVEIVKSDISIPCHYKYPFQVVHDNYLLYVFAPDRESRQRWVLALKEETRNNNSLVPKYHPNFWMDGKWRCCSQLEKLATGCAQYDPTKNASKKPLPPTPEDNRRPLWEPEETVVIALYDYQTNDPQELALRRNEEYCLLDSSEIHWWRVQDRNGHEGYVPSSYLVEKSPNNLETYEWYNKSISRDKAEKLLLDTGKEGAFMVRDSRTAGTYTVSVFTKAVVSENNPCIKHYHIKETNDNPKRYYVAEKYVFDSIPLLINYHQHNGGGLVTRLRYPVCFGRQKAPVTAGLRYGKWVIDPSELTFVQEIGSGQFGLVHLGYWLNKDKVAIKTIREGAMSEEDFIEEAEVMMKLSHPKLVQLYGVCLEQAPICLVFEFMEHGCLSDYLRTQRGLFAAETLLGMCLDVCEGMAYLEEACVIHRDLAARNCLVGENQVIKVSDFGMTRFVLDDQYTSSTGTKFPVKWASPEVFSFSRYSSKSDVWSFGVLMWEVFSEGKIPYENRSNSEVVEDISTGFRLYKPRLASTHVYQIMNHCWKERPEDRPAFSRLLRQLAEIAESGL
Format: biochemical
Outline: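 Ki values come from Morrison quadratic fits of activity versus inhibitor concentration, adjusted for ATP-competitive inhibition against ATP/Km,app. Substrate and phosphopeptide from purified ITK reactions were resolved either microfluidically (Caliper, EDTA stop) or by LC-MS MRM (TCA stop).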
For O=C(Nc1cnn(C(CCN2CCOCC2)c2ccccc2)c1)c1n[nH]c2cc(-c3cn[nH]c3)ccc12 (stereo not drawn) [Example 162, N-[1-(3-morpholino-1-phenyl-propyl)pyrazol-4-yl]-6-(1H-pyrazol-4-yl)-1H-indazole-3-carboxamide], the Ki was 0.28 nM. Compound O=C(Nc1cnn(Cc2cncs2)c1)c1n[nH]c2cc(-c3cn[nH]c3)ccc12 [Example 163, 6-(1H-pyrazol-4-yl)-N-[1-(thiazol-5-ylmethyl)pyrazol-4-yl]-1H-indazole-3-carboxamide] has a Ki of 1.16 nM. Compound N#Cc1cccc(Cn2cc(NC(=O)c3n[nH]c4cc(-c5cncnc5)ccc34)cn2)c1 [Example 164, N-[1-[(3-cyanophenyl)meth-yl]pyrazol-4-yl]-6-pyrimidin-5-yl-1H-indazole-3-carboxamide] has a Ki of 16.9 nM. CN1CC=C(c2ccc3c(C(=O)Nc4cnn(Cc5cccc(C#N)c5)c4)n[nH]c3c2)CC1 [Example 165, N-[1-[(3-cyanophenyl)meth-yl]pyrazol-4-yl]-6-(1-methyl-3,6-dihydro-2H-pyridin-4-yl)-1H-indazole-3-carboxamide] was tested, and the Ki was 654 nM. For COc1cncc(-c2ccc3c(C(=O)Nc4cnn(Cc5cccc(C#N)c5)c4)n[nH]c3c2)c1 [Example 166, N-[1-[(3-cyanophenyl)meth-yl]pyrazol-4-yl]-6-(5-methoxy-3-pyridyl)-1H-indazole-3-carboxamide], the Ki was 7.74 nM. Compound O=C(Nc1cnn(Cc2c[nH]cn2)c1)c1n[nH]c2cc(-c3cn[nH]c3)ccc12 [Example 167, N-[1-(1H-imidazol-4-ylmethyl)pyrazol-4-yl]-6-(1H-pyrazol-4-yl)-1H-indazole-3-carboxamide] has a Ki of 7.68 nM. Work on O=C(Nc1cn[nH]c1)c1n[nH]c2cc(-c3cn[nH]c3)ccc12 [Example 168, N,6-bis(1H-pyrazol-4-yl)-1H-indazole-3-carboxamide] yielded a Ki of 21.6 nM. In the case of O=C(Nc1cnn(CCC2CCCCC2)c1)c1n[nH]c2cc(-c3cn[nH]c3)ccc12 [Example 169, N-[1-(2-cyclohexylethyl)py-razol-4-yl]-6-(1H-pyrazol-4-yl)-1H-indazole-3-carboxamide], the Ki is reported as 7.65 nM. With CC(C)(O)Cn1cc(NC(=O)c2n[nH]c3cc(-c4cn[nH]c4)ccc23)cn1 [Example 170, N-[1-(2-hydroxy-2-methyl-propyl)pyrazol-4-yl]-6-(1H-pyrazol-4-yl)-1H indazole-3-carboxamide] the Ki was 8.74 nM. CCN(CC)CCn1cc(NC(=O)c2n[nH]c3cc(-c4cn[nH]c4)ccc23)cn1 [Example 171, N-[1-[2-(diethylamino)eth-yl]pyrazol-4-yl]-6-(1H-pyrazol-4-yl)-1H-indazole-3-carboxamide] gave a Ki of 7.99 nM. In the case of CN1CCC(Nc2ccc3c(C(=O)Nc4cnn(Cc5cccc(C#N)c5)c4)n[nH]c3c2)C1 (stereo not drawn) [Example 172, N-[1-[(3-cyanophenyl)meth-yl]pyrazol-4-yl]-6-[(1-methylpyrrolidin-3-yl)amino]-1H-indazole-3-carboxamide], the Ki is reported as 1400 nM. Compound N#Cc1cccc(Cn2cc(NC(=O)c3n[nH]c4cc(NC5CCNCC5)ccc34)cn2)c1 [Example 173, N-[1-[(3-cyanophenyl)meth-yl]pyrazol-4-yl]-6-(4-piperidylamino)-1H-indazole-3-carboxamide] has a Ki of 1200 nM. Work on CC[C@H](c1cscn1)n1cc(NC(=O)c2n[nH]c3cc(-c4cn[nH]c4)ccc23)cn1 [Example 174, 6-(1H-pyrazol-4-yl)-N-[1-[(1R)-1-thiazol-4-ylpropyl]pyrazol-4-yl]-1H-indazole-3-carboxamide] yielded a Ki of 1.42 nM. Compound CC[C@@H](c1cscn1)n1cc(NC(=O)c2n[nH]c3cc(-c4cn[nH]c4)ccc23)cn1 [Example 175, 6-(1H-pyrazol-4-yl)-N-[1-[(1S)-1-thiazol-4-ylpropyl]pyrazol-4-yl]-1H-indazole-3-carboxamide] has a Ki of 0.7 nM. Compound CN1CCN(c2ccc3c(C(=O)Nc4cnn(Cc5cccc(C#N)c5)c4)n[nH]c3c2)CC1 [Example 176, N-[1-[(3-cyanophenyl)meth-yl]pyrazol-4-yl]-6-(4-methylpiperazin-1-yl)-1H-indazole-3-carboxamide] has a Ki of 374 nM.
